Experimental data: PMC4585962, “A peptide factor secreted by Staphylococcus pseudintermedius exhibits properties of both bacteriocins and virulence factors” (Scientific Reports, 2015)
No end group written: not given here. *: point of attachment. For = O=C*

Columns and labels:
HSF cells = test: Cell membrane integrity, propidium iodide / FDA fluorescence microscopy; format: cell-based, human; details: media contained 0.5 or 15 μM BacSp222 (concentration of these values not stated), three independent experiments ± SD
V8 peptidase = target: T1, V8 peptidase (Staphylococcus aureus, UniProt P0C1U8); test: Susceptibility to proteolysis, residual bactericidal activity; format: in vitro ADME, S. aureus; details: 30 μM peptide, 100 mM sodium phosphate pH 7.8, enzyme:peptide 1:50 or 1:10 (w/w), 3 hours, 37 °C; residual activity by radial diffusion assay on B. subtilis; triplicate
T1 construct: purchased Biocentrum
T1 sequence (P0C1U8 69-336): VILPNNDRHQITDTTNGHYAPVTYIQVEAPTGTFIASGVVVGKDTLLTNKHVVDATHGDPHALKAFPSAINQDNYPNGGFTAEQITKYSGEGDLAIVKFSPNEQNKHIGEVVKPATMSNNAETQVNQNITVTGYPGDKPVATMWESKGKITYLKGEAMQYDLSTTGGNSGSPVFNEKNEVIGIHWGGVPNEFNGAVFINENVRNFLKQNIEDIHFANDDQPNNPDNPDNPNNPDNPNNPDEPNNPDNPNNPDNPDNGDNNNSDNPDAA
Protocol: (§1) The bactericidal activity of BacSp222 was also determined using the radial diffusion assay. In TSB agar (1%, w/v) containing a 200× diluted overnight culture of Bacillus subtilis ATCC 6633, wells of 2.4-mm diameter were created by drilling out the agar and filling the hole with 10 μl of the BacSp222 preparation for testing. Following overnight incubation at 37 °C, the bactericidal activity was measured as the area of the inhibition zones.
(§2) The temperature stability of BacSp222 (30 μM final concentration) was determined in PBS. The solution was incubated for 1 or 3 h at 72 °C (typical temperature of pasteurization) or at 100 °C. Independently, a solution of bacteriocin was also subjected to a full cycle of autoclaving (20 min at 121 °C). The susceptibility of BacSp222 to proteolysis was verified using S. aureus staphopain C and V8 peptidase, human neutrophil elastase, human cathepsin G (Biocentrum), bovine TPCK-treated trypsin, pepsin from porcine gastric mucosa (Sigma), and proteinase K (A&A Biotechnology). […] The residual activity was determined with the radial diffusion assay using Bacillus subtilis as an indicator strain. […]

staphopain C (StpC) = test: as above; format: in vitro ADME, S. aureus; details: 30 μM peptide, 100 mM Tris-HCl pH 7.5 with 5 mM cysteine hydrochloride and 5 mM EDTA, enzyme:peptide 1:50 or 1:10 (w/w), 3 hours, 37 °C; residual activity by radial diffusion assay on B. subtilis; triplicate
Protocol: as §1, §2

[1] = tested on: adipose-derived stem cells (ASC); test: Cytotoxicity, LDH and MTT assays; format: cell-based; details: 4 h exposure, said to be similar to the other cell types (Fig. S7)
Protocol: Human skin fibroblasts (HSF, ATCC CRL-2522), adipose-derived stem cells (ASCs, ATCC PCS-500-011), and HeLa human epithelioid cervix carcinoma cells (ATCC CCL-2) were maintained in Dulbecco’s modified Eagle’s medium (DMEM, Sigma) containing 1 g/l glucose, 10% (v/v) foetal bovine serum (FBS), 1 U/ml penicillin, 1 μg/ml streptomycin, and 2.5 μg/ml amphotericin B. Murine P388/D1 monocyte/macrophage cells (ATCC CCL-46) and murine RAW264.7 macrophage-like cells (ATCC TIB-71) were cultured in DMEM containing 4.5 g/l glucose, 5% (v/v) FBS, and antibiotics, as indicated above. Keratinocytes from human skin were grown in KBM Gold Medium (Lonza). All cells were incubated in standard conditions (5% CO2, 37 °C, >95% humidity). […] After a 30-min incubation (RT, in the dark), the reaction was stopped, and the absorbance was measured with a microplate reader (PowerWave X, BioTek Instruments) at 490 nm, followed by subtraction of the absorbance reference value at 690 nm. […] The absorbance of solubilized purple formazan was measured at 540 nm, followed by subtraction of the absorbance reference value at 690 nm. […] The amount of released haemoglobin was spectrophotometrically determined at 540 nm and compared with a positive control (erythrocytes lysed with 1% sodium dodecyl sulphate).

human cathepsin G = target: T2, human cathepsin G (Homo sapiens, UniProt P08311); test: Susceptibility to proteolysis, residual bactericidal activity; format: in vitro ADME; details: 30 μM peptide, 100 mM Tris-HCl pH 7.5 with 500 mM NaCl, enzyme:peptide 1:50 or 1:10 (w/w), 3 hours, 37 °C; residual activity by radial diffusion assay on B. subtilis; triplicate
T2 construct: purchased Biocentrum
T2 sequence (P08311 21-255): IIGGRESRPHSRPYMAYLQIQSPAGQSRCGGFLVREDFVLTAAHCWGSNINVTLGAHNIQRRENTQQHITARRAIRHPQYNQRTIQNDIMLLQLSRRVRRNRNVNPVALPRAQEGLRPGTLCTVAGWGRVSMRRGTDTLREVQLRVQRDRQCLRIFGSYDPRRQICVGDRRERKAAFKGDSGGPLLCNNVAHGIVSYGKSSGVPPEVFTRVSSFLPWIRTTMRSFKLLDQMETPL
Protocol: as §1
The temperature stability of BacSp222 (30 μM final concentration) was determined in PBS. The solution was incubated for 1 or 3 h at 72 °C (typical temperature of pasteurization) or at 100 °C. Independently, a solution of bacteriocin was also subjected to a full cycle of autoclaving (20 min at 121 °C). The susceptibility of BacSp222 to proteolysis was verified using S. aureus staphopain C and V8 peptidase, human neutrophil elastase, human cathepsin G (Biocentrum), bovine TPCK-treated trypsin, pepsin from porcine gastric mucosa (Sigma), and proteinase K (A&A Biotechnology). The dried samples of BacSp222 were dissolved to a final concentration of 30 μM in the following buffers: 100 mM Tris-HCl pH 8.0 containing 5 mM CaCl2 (for trypsin and proteinase K), 100 mM Tris-HCl pH 7.5 containing 5 mM cysteine hydrochloride and 5 mM EDTA (for staphopain C), 100 mM Tris-HCl pH 8.0 (for elastase), 100 mM Tris-HCl pH 7.5 containing 500 mM NaCl (for cathepsin G), 100 mM sodium phosphate pH 7.8 (for V8 peptidase), and 100 mM ammonium acetate pH 4.0 (for pepsin). The peptidases were added at 1:50 or 1:10 (enzyme:BacSp222) ratios by weight, and the mixtures were incubated for 1 or 3 h at 37 °C. The residual activity was determined with the radial diffusion assay using Bacillus subtilis as an indicator strain. All of the above experiments were performed in triplicate.

[2] = Temperature stability, residual bactericidal activity; format: physicochemical; details: 30 μM in PBS, full cycle of autoclaving, 20 min at 121 °C; radial diffusion assay on B. subtilis; 100% = untreated BacSp222; triplicate ± SD
Protocol: as §1, §2

## For-MAGLLRFLLSKGRALYNWAKSHVGKVWEWLKSGATYEQIKEWIENALGWR [BacSp222]
HSF cells; 0.5 hours of incubation
  PI-positive cells: 39 ± 13.5%
HSF cells; 2 hours of incubation
  PI-positive cells: 74 ± 6.7%
HSF cells; 4 hours of incubation
  PI-positive cells: 97 ± 3.7%
V8 peptidase
  activity of BacSp222 after incubation with the enzyme: not significantly reduced
Staphopain C (StpC)
  activity of BacSp222 after incubation with the enzyme: not significantly reduced
[1]
  cytotoxic effect: sigmoidal, dose-dependent cytotoxic effect
Human cathepsin G
  activity of BacSp222 after incubation with the enzyme: not significantly reduced
[2]
  activity against the indicator strain after autoclaving: 55 ± 8.8%
